# Experimental data from patent US20250223277A1, “COMPLEMENT FACTOR B INHIBITORS AND USES THEREOF” (Novartis AG, priority 2022, published 2025).
# Biological target: Recombinant human factor B (Homo sapiens (Human), UniProt P00751)
# Assay: Human Complement Factor B TR-FRET Assay
# Assay type: binding
# Conditions: assay of Biological Example 2; read-out: hFactor-B TR-FRET Qualified IC50
# Description: The time-gated decrease in fluorescence intensity related to the competition between labeled and unlabeled factor B ligands was recorded at both 620 nm and 665 nm, 70 us after excitation at 337 nm using a microplate spectrofluorimeter.
# Sequence of Recombinant human factor B (P00751 26-764): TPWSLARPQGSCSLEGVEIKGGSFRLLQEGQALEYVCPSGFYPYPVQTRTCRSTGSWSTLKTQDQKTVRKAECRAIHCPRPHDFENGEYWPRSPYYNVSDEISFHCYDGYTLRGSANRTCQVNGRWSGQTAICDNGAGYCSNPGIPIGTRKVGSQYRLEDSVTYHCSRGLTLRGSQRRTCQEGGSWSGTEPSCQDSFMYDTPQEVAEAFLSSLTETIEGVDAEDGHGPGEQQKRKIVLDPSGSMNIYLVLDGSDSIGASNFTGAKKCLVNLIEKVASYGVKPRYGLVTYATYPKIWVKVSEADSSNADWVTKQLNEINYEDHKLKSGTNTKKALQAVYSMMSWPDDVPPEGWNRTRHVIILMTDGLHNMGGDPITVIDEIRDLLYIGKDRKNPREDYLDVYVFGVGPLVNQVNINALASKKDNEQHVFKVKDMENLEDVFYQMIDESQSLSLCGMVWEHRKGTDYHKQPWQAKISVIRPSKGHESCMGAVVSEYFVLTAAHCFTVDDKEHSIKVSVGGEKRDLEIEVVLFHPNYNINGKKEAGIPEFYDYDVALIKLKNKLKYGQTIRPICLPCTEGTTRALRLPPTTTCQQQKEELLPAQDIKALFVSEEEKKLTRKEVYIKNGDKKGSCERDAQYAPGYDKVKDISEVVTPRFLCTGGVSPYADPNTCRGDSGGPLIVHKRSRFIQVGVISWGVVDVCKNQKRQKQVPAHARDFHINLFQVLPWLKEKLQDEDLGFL
row,Structure (SMILES),IC50
1,"Cc1cc(C)c2[nH]ccc2c1C[C@@H]1CCN(CC(F)(F)F)C[C@H]1c1ccc(C#N)cc1 [Ex-45, 4-((3R,4R)-4-((5,7-dimethyl-1H-indol-4-yl)methyl)-1-(2,2,2-trifluoroethyl)piperidin-3-yl)benzonitrile]",< 30000 nM
2,Cc1cc(C2CC2)c(C[C@H]2CCN(CC(F)(F)F)C[C@@H]2c2ccc(C(=O)O)cc2)c2cc[nH]c12 [Ex-4],< 30000 nM
3,"Cc1cc(C)c2[nH]ccc2c1C[C@@H]1CCN(CC(F)(F)F)C[C@H]1c1ccc(-n2cccn2)cc1 [Ex-47, 4-(((3R,4R)-3-(4-(1H-pyrazol-1-yl)phenyl)-1-(2,2,2-trifluoroethyl)piperidin-4-yl)methyl)-5,7-dimethyl-1H-indole]",< 1000 nM
4,Cc1cc(C)c2[nH]ccc2c1C[C@H]1CCN(C)C[C@@H]1c1ccc(C(=O)O)cc1 [Ex-9],< 30000 nM
5,"Cc1cc(C)c2[nH]ccc2c1C[C@@H]1CCN(CCC(F)F)CC[C@H]1c1ccc(C(=O)O)cc1 [Ex-32, 4-((4R,5R)-1-(3,3-difluoropropyl)-5-((5,7-dimethyl-1H-indol-4-yl)methyl)azepan-4-yl)benzoic acid]",< 1000 nM
6,"Cc1cc(C)c2[nH]ccc2c1C[C@@H]1CN(CC(F)(F)F)C[C@H]1c1ccc(C(=O)O)cc1 (racemic) [Ex-26, 4-(4-((5,7-dimethyl-1H-indol-4-yl)methyl)-1-(2,2,2-trifluoroethyl)pyrrolidin-3-yl)benzoic acid]",< 30000 nM
7,"CCN1C[C@@H](Cc2c(C3CC3)cc(C)c3[nH]ccc23)[C@H](c2ccc(-c3nnn[nH]3)cc2)C1 (racemic) [Ex-61, 4-((4-(4-(1H-tetrazol-5-yl)phenyl)-1-ethylpyrrolidin-3-yl)methyl)-5-cyclopropyl-7-methyl-1H-indole]",< 100 nM
8,"Cc1cc(C)c2[nH]ccc2c1C[C@@H]1CCN(C)C[C@H]1c1ccc(C#N)cc1 [Ex-44, 4-((3R,4R)-4-((5,7-dimethyl-1H-indol-4-yl)methyl)-1-methylpiperidin-3-yl)benzonitrile]",< 1000 nM
9,"Cc1cc(C)c2[nH]ccc2c1C[C@H]1CCN(CC(F)(F)F)C[C@@H]1c1ccc(C(=O)O)cc1 [Ex-2, 4-((3S,4S)-4-((5,7-dimethyl-1H-indol-4-yl)methyl)-1-(2,2,2-trifluoro-ethyl)piperidin-3-yl)benzoic acid]",< 30000 nM
10,"Cc1cc(C)c2[nH]ccc2c1C[C@@H]1CCN(C)CC[C@H]1c1ccc(C(=O)O)cc1 [Ex-30, 4-((4R,5R)-5-((5,7-dimethyl-1H-indol-4-yl)methyl)-1-methylazepan-4-yl)benzoic acid]",< 100 nM
11,"Cc1cc(C)c2[nH]ccc2c1C[C@@H]1CCN(CCC(F)F)C[C@H]1c1ccc(C(=O)O)cc1 [Ex-23, 4-((3R,4R)-1-(3,3-difluoropropyl)-4-((5,7-dimethyl-1H-indol-4-yl)methyl)piperidin-3-yl)benzoic acid]",< 100 nM
12,"Cc1cc(C)c2[nH]ccc2c1C[C@@H]1CCN(CC(C)(C)O)C[C@H]1c1ccc(C(=O)O)cc1 [Ex-15, 4-((3R,4R)-4-((5,7-dimethyl-1H-indol-4-yl)methyl)-1-(2-hydroxy-2-methylpropyl)piperidin-3-yl)benzoic acid]",< 1000 nM
13,"Cc1cc(C)c2[nH]ccc2c1C[C@@H]1CCN(C)C[C@H]1c1ccc(-c2nnn[nH]2)cc1 [Ex-42, 4-(((3R,4R)-3-(4-(1H-tetrazol-5-yl)phenyl)-1-methylpiperidin-4-yl)methyl)-5,7-dimethyl-1H-indole]",< 100 nM
14,"Cc1cc(F)c(C[C@@H]2CCN(C)C[C@H]2c2ccc(C(=O)O)cc2)c2cc[nH]c12 [Ex-35, 4-((3R,4R)-4-((5-fluoro-7-methyl-1H-indol-4-yl)methyl)-1-methylpiperidin-3-yl)benzoic acid]",< 100 nM
15,"Cc1cc(C)c2[nH]ccc2c1C[C@@H]1CCN(C2COC2)C[C@H]1c1ccc(-n2cccn2)cc1 [Ex-50, 4-(((3R,4R)-3-(4-(1H-pyrazol-1-yl)phenyl)-1-(oxetan-3-yl)piperidin-4-yl)methyl)-5,7-dimethyl-1H-indole]",< 1000 nM
16,"Cc1cc(C)c2[nH]ccc2c1C[C@@H]1CCN(CCC(F)F)C[C@H]1c1ccc(-n2cccn2)cc1 [Ex-48, 4-(((3R,4R)-3-(4-(1H-pyrazol-1-yl)phenyl)-1-(3,3-difluoropropyl)piperidin-4-yl)methyl)-5,7-dimethyl-1H-indole]",< 100 nM
17,"Cc1cc(C)c2[nH]ccc2c1C[C@@H]1CCN(CC2(F)COC2)C[C@H]1c1ccc(-n2cccn2)cc1 [Ex-49, 4-(((3R,4R)-3-(4-(1H-pyrazol-1-yl)phenyl)-1-((3-fluorooxetan-3-yl)methyl)piperidin-4-yl)methyl)-5,7-dimethyl-1H-indole]",< 100 nM
18,"Cc1cc(C)c2[nH]ccc2c1C[C@@H]1CCN(CC2(F)COC2)C[C@H]1c1ccc(C(=O)O)cc1 [Ex-17, 4-((3R,4R)-4-((5,7-dimethyl-1H-indol-4-yl)methyl)-1-((3-fluorooxetan-3-yl)methyl)piperidin-3-yl)benzoic acid]",< 100 nM
19,COc1cc(C)c2[nH]ccc2c1C[C@H]1CCN(CC(F)(F)F)C[C@@H]1c1ccc(C(=O)O)cc1 [Ex-6],< 30000 nM
20,"Cc1cc(C)c2[nH]ccc2c1C[C@@H]1CCCN(C)C[C@H]1c1ccc(C(=O)O)cc1 [Ex-27, 4-((3R,4S)-4-((5,7-dimethyl-1H-indol-4-yl)methyl)-1-methylazepan-3-yl)benzoic acid]",< 100 nM
21,"CCN1CC[C@@H](Cc2c(C)cc(C)c3[nH]ccc23)[C@H](c2ccc(C(=O)O)cc2)C1 [Ex-10, 4-((3R,4R)-4-((5,7-dimethyl-1H-indol-4-yl)methyl)-1-ethylpiperidin-3-yl)benzoic acid]",< 100 nM
22,"COc1cc(C)c2[nH]ccc2c1C[C@@H]1CCN(CC(F)(F)F)C[C@H]1c1ccc(C(=O)O)cc1 [Ex-5, 4-((3R,4R)-4-((5-methoxy-7-methyl-1H-indol-4-yl)methyl)-1-(2,2,2-trifluoroethyl)piperidin-3-yl)benzoic acid]",< 1000 nM
23,"Cc1cc(C)c2[nH]ccc2c1C[C@@H]1CN(C)C[C@H]1c1ccc(C(N)=O)cc1 (racemic) [Ex-58, Racemic 4-((3R*,4S*)-4-((5,7-dimethyl-1H-indol-4-yl)methyl)-1-methylpyrrolidin-3-yl)benzamide]",< 30000 nM
24,"Cc1cc(C)c2[nH]ccc2c1C[C@@H]1CCN(C2COC2)C[C@H]1c1ccc(C(=O)O)cc1 [Ex-21, 4-((3R,4R)-4-((5,7-dimethyl-1H-indol-4-yl)methyl)-1-(oxetan-3-yl)piperidin-3-yl)benzoic acid]",< 1000 nM
25,"COCCN1CC[C@@H](Cc2c(C)cc(C)c3[nH]ccc23)[C@H](c2ccc(C(=O)O)cc2)C1 [Ex-14, 4-((3R,4R)-4-((5,7-dimethyl-1H-indol-4-yl)methyl)-1-(2-methoxyethyl)piperidin-3-yl)benzoic acid]",< 100 nM
26,"Cc1cc(C)c2[nH]ccc2c1C[C@@H]1CN(C)C[C@H]1c1ccc(-c2nnn[nH]2)cc1 [Ex-60, 4-(((3S,4R)-4-(4-(2H-tetrazol-5-yl)phenyl)-1-methylpyrrolidin-3-yl)methyl)-5,7-dimethyl-1H-indole]",< 100 nM

# The remaining lines, values ahead:
row,IC50,Structure (SMILES)
1,< 100 nM,"Cc1cc(C)c2[nH]ccc2c1C[C@@H]1CCN(C)C[C@H]1c1ccc(C(=O)O)cc1 [Ex-8, 4-((3R,4R)-4-((5,7-dimethyl-1H-indol-4-yl)methyl)-1-methylpiperidin-3-yl)benzoic acid]"
2,< 100 nM,"Cc1cc(C)c2[nH]ccc2c1C[C@@H]1CCN(CCF)C[C@H]1c1ccc(C(=O)O)cc1 [Ex-12, 4-((3R,4R)-4-((5,7-dimethyl-1H-indol-4-yl)methyl)-1-(2-fluoroethyl)piperidin-3-yl)benzoic acid]"
3,< 100 nM,"Cc1cc(C)c2[nH]ccc2c1C[C@@H]1CCN(CC(F)(F)F)C[C@H]1c1ccc(-c2nnn[nH]2)cc1 [Ex-43, 4-(((3R,4R)-3-(4-(1H-tetrazol-5-yl)phenyl)-1-(2,2,2-trifluoroethyl)piperidin-4-yl)methyl)-5,7-dimethyl-1H-indole]"
4,< 100 nM,"Cc1cc(C)c2[nH]cc(Cl)c2c1C[C@@H]1CCN(C)C[C@H]1c1ccc(C(=O)O)cc1 [Ex-39, 4-((3R,4R)-4-((3-chloro-5,7-dimethyl-1H-indol-4-yl)methyl)-1-methylpiperidin-3-yl)benzoic acid]"
5,< 100 nM,"CN1CC[C@@H](Cc2c(Cl)cc(Cl)c3[nH]ccc23)[C@H](c2ccc(C(=O)O)cc2)C1 [Ex-37, 4-((3R,4R)-4-((5,7-dichloro-1H-indol-4-yl)methyl)-1-methylpiperidin-3-yl)benzoic acid]"
6,< 100 nM,"CCCN1CC[C@@H](Cc2c(C)cc(C)c3[nH]ccc23)[C@H](c2ccc(C(=O)O)cc2)C1 [Ex-20, 4-((3R,4R)-4-((5,7-dimethyl-1H-indol-4-yl)methyl)-1-propylpiperidin-3-yl)benzoic acid]"
7,< 100 nM,"Cc1cc(C2CC2)c(C[C@@H]2CN(C)C[C@H]2c2ccc(C(=O)O)cc2)c2cc[nH]c12 [Ex-59, 4-((3R,4S)-4-((5-cyclopropyl-7-methyl-1H-indol-4-yl)methyl)-1-methylpyrrolidin-3-yl)benzoic acid]"
8,< 100 nM,"Cc1cc(C)c2[nH]ccc2c1C[C@@H]1CCN(C)C[C@H]1c1ccc(-n2cccn2)cc1 [Ex-46, 4-(((3R,4R)-3-(4-(1H-pyrazol-1-yl)phenyl)-1-methylpiperidin-4-yl)methyl)-5,7-dimethyl-1H-indole]"
9,< 100 nM,"Cc1cc(C2CC2)c(C[C@@H]2CCN(CC(F)(F)F)C[C@H]2c2ccc(C(=O)O)cc2)c2cc[nH]c12 [Ex-3, 4-((3R,4R)-4-((5-cyclopropyl-7-methyl-1H-indol-4-yl)methyl)-1-(2,2,2-trifluoroethyl)piperidin-3-yl)benzoic acid]"
10,< 100 nM,"CCN1CCC[C@@H](Cc2c(C)cc(C)c3[nH]ccc23)[C@H](c2ccc(C(=O)O)cc2)C1 [Ex-29, 4-((3R,4S)-4-((5,7-dimethyl-1H-indol-4-yl)methyl)-1-ethylazepan-3-yl)benzoic acid]"
11,< 100 nM,"Cc1cc(Cl)c(C[C@@H]2CCN(C)C[C@H]2c2ccc(C(=O)O)cc2)c2cc[nH]c12 [Ex-36, 4-((3R,4R)-4-((5-chloro-7-methyl-1H-indol-4-yl)methyl)-1-methylpiperidin-3-yl)benzoic acid]"
